# Experimental data taken from paper PMC7018972, “Novel and selective inactivators of Triosephosphate isomerase with anti-trematode activity” (Scientific Reports, 2020).
# Target: Fasciola hepatica TIM (FhTIM) (Fasciola hepatica, UniProt S4UI50)
# Test: Inhibition of recombinant FhTIM, coupled enzyme assay
# Format: biochemical
# Details: Figure 1, ranges of inhibitory activity; read-out: IC50 range
# Description: Expression and purification of proteins: FhTIM, RabbitTIM and HsTIM were expressed in Escherichia coli and purified as described in the literature[31],[37]. […] Before use, extensive dialysis against 100 mM triethanolamine/10 mM EDTA (pH 7.4) was performed. […] Enzymatic activity was determined following the conversion of glyceraldehydes-3-phosphate into dihydroxyacetone phosphate in a coupled enzyme assay. The decrease in absorbance at 340 nm was followed in a multiplate reader VarioskanTM Flash Multimode Reader (Thermo ScientificTM, Waltham, MA, USA) at 38 °C. The reaction mixture (1 mL, pH 7.4) contained 100 mM triethanolamine, 10 mM EDTA, 0.2 mM NADH, 1 mM glyceraldehydes-3-phosphate and 0.9 units of α-glycerol phosphate dehydrogenase. The reaction was initiated by the addition of 5 ng/mL of the TIM of interest. For the inhibition studies, TIM was incubated at a concentration of 5 mg/mL in a buffer containing 100 mM triethanolamine, 10 mM EDTA, pH 7.4 and 10% of DMSO at 37 °C for 1 h. The mixture also contained the compounds, dissolved in DMSO, at the indicated concentrations. After 1 h, 10 µL were withdrawn and added to a final volume of 100 µL of the reaction mixture for the activity assay. The inhibition assay was performed in a 96-well microplate. […] The experiments were performed in triplicate in two independent experiments.
# Fasciola hepatica TIM (FhTIM), sequence (S4UI50 entry or part of it): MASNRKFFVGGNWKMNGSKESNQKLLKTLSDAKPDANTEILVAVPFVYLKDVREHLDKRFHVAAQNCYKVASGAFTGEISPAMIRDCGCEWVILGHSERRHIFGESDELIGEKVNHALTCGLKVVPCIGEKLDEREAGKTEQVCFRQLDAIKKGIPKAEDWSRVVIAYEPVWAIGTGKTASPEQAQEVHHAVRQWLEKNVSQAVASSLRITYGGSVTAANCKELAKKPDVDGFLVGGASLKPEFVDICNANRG
row,IC50 [µM],Structure (SMILES)
1,< 50,CN(C)Cc1ccccc1Cn1nc(O)c2cc([N+](=O)[O-])ccc21 [Compound 482]

# Same assay, conditions: Table 1S, screening of 340 compounds in FhTIM; table head prints no unit, µM per b8/b9; read-out: IC50
row,IC50 [µM],Structure (SMILES)
1,50 to 100,C=CCn1c(C)csc1=NN=Cc1cccs1 [Compound 274]
2,> 100,C=CCn1c(-c2ccccc2)csc1=NN=CC=Cc1ccco1 [Compound 276]
3,> 100,S=C(NN=C/C=C/c1ccco1)Nc1ccccc1 [Compound 277]
4,> 100,S=C(NN=Cc1ccccc1)Nc1ccccc1 [Compound 278]
5,> 100,S=C(NN=Cc1cccs1)Nc1ccccc1 [Compound 279]
6,> 100,C=CCNC(=S)NN=Cc1ccc2c(c1)OCO2 [Compound 280]
7,> 100,C=CCNC(=S)NN=Cc1ccc(SC)cc1 [Compound 281]
8,> 100,O=C1CSC(=NN=CC=Cc2ccco2)N1c1ccccc1 [Compound 282]
9,> 100,NC(=S)NN=Cc1ccc([N+](=O)[O-])s1 [Compound 283]
10,> 100,CC(=O)N(C1=NN(C(C)=O)C(c2cccs2)S1)c1ccccc1 (centres unmarked) [Compound 284]
11,> 100,C=CCN(C(C)=O)C1=NN(C(C)=O)C(C=Cc2ccco2)S1 (centres unmarked) [Compound 285]
12,> 100,C=CCN(C(C)=O)C1=NNC(c2cccs2)S1 (centres unmarked) [Compound 286]
13,> 100,C=CCN(C(C)=O)C1=NNC(c2ccc([N+](=O)[O-])s2)S1 (centres unmarked) [Compound 287]
14,> 100,C=CCn1c(-c2csc(=NN=Cc3cccs3)n2CC=C)csc1=NN=Cc1cccs1 [Compound 288]
15,> 100,C=CCNC(=S)NN=Cc1ccc(O)cc1 [Compound 291]
16,> 100,C=CCNc1nnc(-c2ccc([N+](=O)[O-])s2)s1 [Compound 292]
17,> 100,O=C1CSC(=NN=Cc2cccs2)N1c1ccccc1 [Compound 293]
18,> 100,C=CCNC(=S)NN=Cc1ccc2ccccc2c1 [Compound 296]
19,> 100,C=CCNC(=S)NN=CC=Cc1ccccc1 [Compound 300]
20,> 100,C=CCn1c(-c2ccc(Cl)cc2)csc1=NN=Cc1ccc2no[n+]([O-])c2c1 [Compound 304]
21,50 to 100,C=CCn1c(-c2ccc(Br)cc2)csc1=NN=CC=Cc1ccco1 [Compound 306]
22,> 100,C=CCNC(=S)NN=Cc1cncc(Br)c1 [Compound 307]

row,IC50 [µM],Structure (SMILES)
1,50 to 100,C=CCNC(=S)NN=Cc1ccnc2ccccc12 [Compound 308]
2,50 to 100,S=C(NN=CC=CC=Cc1cccs1)Nc1ccccc1 [Compound 310]
3,50 to 100,C=CCn1c(-c2ccc(Cl)cc2)csc1=NN=C/C=C/C=C/c1cccs1 [Compound 311]
4,> 100,C=CCN1C(=O)CSC1=NN=CC=CC=Cc1cccs1 [Compound 312]
5,> 100,O=C1CSC(=NN=C/C=C/C=C/c2cccs2)N1c1ccccc1 [Compound 313]
6,> 100,C=CCn1c(C(=O)N2CCN(CC=Cc3ccccc3)CC2)csc1=NN=CC=Cc1ccco1 [Compound 314]
7,> 100,[O-][n+]1onc(-c2ccccc2)c1CN1CCOCC1 [Compound 352]
8,> 100,CN1CC(=Cc2ccccc2)C(=O)C(=Cc2ccccc2)C1 [Compound 357]
9,> 100,O=C1CC(=O)N(Cc2ccccc2)S(=O)(=O)N1Cc1ccccc1 [Compound 358]
10,> 100,Cc1nnc[n+]([O-])c1C=Cc1ccc([N+](=O)[O-])o1 [Compound 359]
11,> 100,Cc1nnc[n+]([O-])c1CC(c1ccc([N+](=O)[O-])cc1)N1CCOCC1 (centres unmarked) [Compound 360]
12,100,Cc1nnc[n+]([O-])c1/C=C/c1ccc([N+](=O)[O-])s1 [Compound 361]
13,> 100,COc1ccc(C=Cc2cnnc[n+]2[O-])cc1 [Compound 365]
14,> 100,COc1ccc(NC(=O)CCl)cc1 [Compound 379]
15,> 100,NNC(=O)Nc1ccc(Cl)cc1 [Compound 397]
16,> 100,O=[N+]([O-])c1ccc2c(c1)c(O)nn2Cc1ccccc1CN1CCCCC1 [Compound 456]
17,> 100,O=[N+]([O-])c1ccc2c(c1)c(O)nn2CCOCCN1CCCCC1 [Compound 459]
18,> 100,COc1nn(CCCCCN(C)C)c2ccc([N+](=O)[O-])cc12 [Compound 469]
19,> 100,O=C(O)c1ccc(Cl)[n+]([O-])c1 [Compound 472]
20,> 100,COc1nn(CCOCCN(C)C)c2ccc([N+](=O)[O-])cc12 [Compound 474]
21,> 100,Cc1ccc(-n2c(C#N)c3ccccc3[n+]2[O-])cc1 [Compound 476]
22,> 100,CN(C)CCCCCn1nc(O)c2cc([N+](=O)[O-])ccc21 [Compound 477]

row,IC50 [µM],Structure (SMILES)
1,> 100,N#Cc1c2ccccc2[n+]([O-])n1-c1ccc(Cl)cc1 [Compound 480]
2,50 to 100,O=[N+]([O-])c1ccc2c(c1)c(O)nn2CCCCCN1CCCCC1 [Compound 481]
3,> 100,N#Cc1c2ccccc2[n+]([O-])n1CCCl [Compound 483]
4,> 100,CC(C)OC(CC[P+](c1ccccc1)(c1ccccc1)c1ccccc1)OC(C)C [Compound 497]
5,> 100,CN(CC=Cc1ccccc1)Cc1ccc2c(c1)=[N+]([O-])C(C)(C)[N+]=2[O-] [Compound 499]
6,> 100,N#Cc1c2ccccc2[n+]([O-])n1C/C=C/c1ccccc1 [Compound 500]
7,> 100,N#Cc1c2ccccc2[n+]([O-])n1CCC=Cc1ccc(Cl)cc1 [Compound 501]
8,> 100,COc1nn(CCOCCN(C)CC=Cc2ccccc2)c2ccc([N+](=O)[O-])cc12 [Compound 504]
9,> 100,O=[N+]([O-])c1ccc2c(c1)c(OCc1ccccc1)nn2CCCCCN1CCN(CC=Cc2ccccc2)CC1 [Compound 505]
10,> 100,CN(CC=Cc1ccccc1)CCCCCn1nc(OCc2ccccc2)c2cc([N+](=O)[O-])ccc21 [Compound 507]
11,> 100,CN(C/C=C/c1ccccc1)CCOCCn1nc(OCc2ccccc2)c2cc([N+](=O)[O-])ccc21 [Compound 508]
12,> 100,COc1nn(CCOCCI)c2ccc([N+](=O)[O-])cc12 [Compound 514]
13,> 100,O=[N+]([O-])c1ccc2c(c1)c(OCc1ccccc1)nn2CCOCCBr [Compound 516]
14,> 100,O=[N+]([O-])c1ccc2c(c1)c(O)nn2CCOCCBr [Compound 517]
15,100,O=[N+]([O-])c1ccc2c(c1)c(OCc1ccccc1)nn2CCCCCBr [Compound 518]
16,50 to 100,CC1(C)[N+]([O-])=c2ccc(Cl)cc2=[N+]1[O-] [Compound 532]
17,100,CCOC(=O)c1nc2ccc([N+](=O)[O-])cc2n1OC(=O)OCC(C)C [Compound 545]
18,> 100,CCOC(=O)c1nc2ccc([N+](=O)[O-])cc2n1O [Compound 546]
19,> 100,CCCCOC(=O)c1nc2ccc([N+](=O)[O-])cc2n1O [Compound 550]
20,> 100,CCOC(=O)c1n(Cc2ccc(N(C)C)cc2)c2ccc([N+](=O)[O-])cc2[n+]1[O-] [Compound 553]
21,50 to 100,NC1=NC(=O)N=C(N)C1=Cc1ccco1 [Compound 575]
22,> 100,N#CC(C#N)=CC=Cc1ccco1 [Compound 579]

row,IC50 [µM],Structure (SMILES)
1,> 100,O=[N+]([O-])c1ccc(C=Cc2ccc3nonc3c2)cc1 [Compound 584]
2,> 100,[O-][n+]1onc2ccc(CN3CCN(CC=Cc4ccccc4)CC3)cc21 [Compound 609]
3,> 100,NN1CCSCC1 [Compound 616]
4,> 100,[O-][n+]1onc2cc(F)c(F)cc21 [Compound 627]
5,> 100,[O-][N+]1=c2ccccc2=[N+]([O-])C12CCCC2 [Compound 633]
6,> 100,O=c1c2cc([N+](=O)[O-])ccc2n2n1CCCCC2 [Compound 637]
7,> 100,Cc1nnc[n+]([O-])c1C=Cc1ccc(N(C)C)cc1 [Compound 641]
8,> 100,O=[N+]([O-])c1ccc2c(c1)c(O)nn2CCOCCN1CCSCC1 [Compound 642]
9,> 100,CCCCNCCCCCn1nc(OC)c2cc([N+](=O)[O-])ccc21 [Compound 643]
10,> 100,N#Cc1c(-c2ccccc2)no[n+]1[O-] [Compound 650]
11,> 100,CNc1ccc(C)cc1[N+](=O)[O-] [Compound 651]
12,> 100,COc1ccc(CNCC(=O)O)cc1 [Compound 659]
13,> 100,CCOC(=O)On1c(C(=O)OCC)nc2ccc([N+](=O)[O-])cc21 [Compound 660]
14,100,N#CSc1ccc(C=O)cc1[N+](=O)[O-] [Compound 670]
15,> 100,[O-][n+]1onc2ncc(Cl)cc21 [Compound 671]
16,50 to 100,NC(N)=N/N=C/c1ccc(O)cc1 [Compound 675]
17,> 100,Cc1ccc2c(c1)nc(-c1ccc(N(C)C)cc1)n2CCc1ccccc1 [Compound 696]
18,> 100,O=C1CCCC2=C1C(c1ccc(C(=O)O)cc1)c1ccc3ccccc3c1N2 (centres unmarked) [Compound 698]
19,> 100,O=C1CCCC2=C1C(c1cccc(Br)c1)c1ccc3ccccc3c1N2 (centres unmarked) [Compound 699]
20,> 100,CC(=NNC(N)=O)c1cccc(C(C)=NNC(N)=O)n1 [Compound 701]

# Same assay, conditions: recombinant FhTIM, 1 h incubation with compound at 37 °C; read-out: IC50
row,IC50 [µM],Structure (SMILES)
1,79 ± 7,S=C(NN=CC=CC=Cc1cccs1)Nc1ccccc1 [Compound 310]
2,30 ± 3,CN(C)Cc1ccccc1Cn1nc(O)c2cc([N+](=O)[O-])ccc21 [Compound 482]
